Experimental data as given in ChEMBL document CHEMBL3352542, “Synthesis, biological evaluation and molecular modeling study of 2-(1,3,4-thiadiazolyl-thio and 4-methyl-thiazolyl-thio)-quinazolin-4-ones as a new class of DHFR inhibitors” (Bioorg Med Chem Lett, 2014).
Activity calls are given as the source filed them. The rule behind the calls is not given here.

Legend:
[1] = tested on: SNB-19; assay: Growth inhibition of human SNB19 cells at 10 uM after 48 hrs; type: functional
[2] = tested on: MDA-MB-231; assay: Growth inhibition of human MDA-MB-231 cells at 10 uM after 48 hrs; type: functional
[3] = (§1) Growth inhibition of human UACC62 cells at 10 uM after 48 hrs; type: functional; details: UACC-62, 48 h, read-out: GI
[4] = (§2) Growth inhibition of human UO31 cells at 10 uM after 48 hrs; type: functional; details: UO-31, 48 h, read-out: GI
[5] = Growth inhibition of human OVCAR8 cells at 10 uM after 48 hrs; type: functional; details: OVCAR-8, 48 h, read-out: GI
[6] = tested on: 786-0; assay: Growth inhibition of human 786-0 cells at 10 uM after 48 hrs; type: functional
[7] = tested on: Escherichia coli; assay: Antimicrobial activity against Escherichia coli assessed as inhibition zone at 200 ug/disk after 24 hrs by disc-diffusion method; type: functional; details: read-out: IZ
[8] = tested on: K562; assay: Growth inhibition of human K562 cells at 10 uM after 48 hrs; type: functional
[9] = tested on: KM12; assay: Growth inhibition of human KM12 cells at 10 uM after 48 hrs; type: functional
[10] = tested on: SNB-75; assay: Growth inhibition of human SNB75 cells at 10 uM after 48 hrs; type: functional; details: SNB-75, 48 h, read-out: GI
[11] = tested on: SF-268; assay: Growth inhibition of human SF268 cells at 10 uM after 48 hrs; type: functional; details: SF-268, 48 h, read-out: GI
[12] = (§3) Growth inhibition of human HCT15 cells at 10 uM after 48 hrs; type: functional; details: HCT-15, 48 h, read-out: GI
[13] = (§4) Growth inhibition of human RXF393 cells at 10 uM after 48 hrs; type: functional; details: RXF 393, 48 h, read-out: GI
[14] = Growth inhibition of human OVCAR5 cells at 10 uM after 48 hrs; type: functional; details: OVCAR-5, 48 h, read-out: GI
[15] = Growth inhibition of human NCI-ADR-RES cells at 10 uM after 48 hrs; type: functional; details: read-out: GI
[16] = tested on: SK-MEL-5; assay: Growth inhibition of human SK-MEL-5 cells at 10 uM after 48 hrs; type: functional
[17] = (§5) Growth inhibition of human SF295 cells at 10 uM after 48 hrs; type: functional; details: SF-295, 48 h, read-out: GI
[18] = Growth inhibition of human BT549 cells at 10 uM after 48 hrs; type: functional; details: BT-549, 48 h, read-out: GI
[19] = tested on: Bacillus subtilis; assay: Antimicrobial activity against Bacillus subtilis assessed as inhibition zone at 200 ug/disk after 24 hrs by disc-diffusion method; type: functional; details: read-out: IZ
[20] = (§6) Growth inhibition of human HOP92 cells at 10 uM after 48 hrs; type: functional; details: HOP-92, 48 h, read-out: GI
[21] = Growth inhibition of human LOXIMVI cells at 10 uM after 48 hrs; type: functional; details: LOX IMVI, read-out: GI
[22] = tested on: A498; assay: Growth inhibition of human A498 cells at 10 uM after 48 hrs; type: functional
[23] = tested on: Pseudomonas aeruginosa; assay: Antimicrobial activity against Pseudomonas aeruginosa assessed as inhibition zone at 200 ug/disk after 24 hrs by disc-diffusion method; type: functional; details: read-out: IZ
[24] = (§7) Growth inhibition of human OVCAR4 cells at 10 uM after 48 hrs; type: functional; details: OVCAR-4, 48 h, read-out: GI
[25] = tested on: A549; assay: Growth inhibition of human A549 cells at 10 uM after 48 hrs; type: functional
[26] = tested on: Candida albicans; assay: Antimicrobial activity against Candida albicans assessed as inhibition zone at 200 ug/disk after 24 hrs by disc-diffusion method; type: functional; details: read-out: IZ
[27] = tested on: CAKI-1; assay: Growth inhibition of human CAKI-1 cells at 10 uM after 48 hrs; type: functional
[28] = tested on: Staphylococcus aureus; assay: Antimicrobial activity against Staphylococcus aureus assessed as inhibition zone at 200 ug/disk after 24 hrs by disc-diffusion method; type: functional; details: read-out: IZ
[29] = (§8) Growth inhibition of human RPMI8226 cells at 10 uM after 48 hrs; type: functional; details: RPMI-8226, 48 h, read-out: GI
[30] = tested on: U-251; assay: Growth inhibition of human U251 cells at 10 uM after 48 hrs; type: functional
[31] = (§9) Growth inhibition of human PC3 cells at 10 uM after 48 hrs; type: functional; details: PC-3, 48 h, read-out: GI
[32] = (§10) Growth inhibition of human HCT116 cells at 10 uM after 48 hrs; type: functional; details: HCT-116, 48 h, read-out: GI
[33] = target: T1, Dihydrofolate reductase (Bos taurus, UniProt P00376); assay: Inhibition of bovine liver DHFR
T1 sequence (P00376 whole entry): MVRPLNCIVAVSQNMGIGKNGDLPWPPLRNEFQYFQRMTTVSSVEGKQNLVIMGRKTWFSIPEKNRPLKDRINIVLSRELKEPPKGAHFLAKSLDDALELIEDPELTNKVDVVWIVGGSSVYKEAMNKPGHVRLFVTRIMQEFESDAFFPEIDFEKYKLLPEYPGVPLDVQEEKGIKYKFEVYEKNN

[34] = tested on: MDA-MB-435; assay: Growth inhibition of human MDA-MB-435 cells at 10 uM after 48 hrs; type: functional
[35] = tested on: UACC-62; assay: as §1; type: functional
[36] = tested on: HOP-62; assay: Growth inhibition of human HOP62 cells at 10 uM after 48 hrs; type: functional
[37] = tested on: UO-31; assay: as §2; type: functional
[38] = tested on: HL-60(TB); assay: Growth inhibition of human HL-60(TB) cells at 10 uM after 48 hrs; type: functional
[39] = tested on: Staphylococcus aureus; assay: Antimicrobial activity against Staphylococcus aureus assessed as inhibition of visible growth after 24 hrs by disc-diffusion method; type: functional, organism-based
[40] = tested on: MOLT-4; assay: Growth inhibition of human MOLT4 cells at 10 uM after 48 hrs; type: functional
[41] = tested on: SK-MEL-28; assay: Growth inhibition of human SK-MEL-28 cells at 10 uM after 48 hrs; type: functional, cell-based
[42] = tested on: HCT-15; assay: as §3; type: functional
[43] = tested on: UACC-257; assay: Growth inhibition of human UACC257 cells at 10 uM after 48 hrs; type: functional
[44] = tested on: RXF 393; assay: as §4; type: functional
[45] = tested on: Malme-3M; assay: Growth inhibition of human MALME-3M cells at 10 uM after 48 hrs; type: functional
[46] = tested on: HT-29; assay: Growth inhibition of human HT-29 cells at 10 uM after 48 hrs; type: functional
[47] = tested on: Bacillus subtilis; assay: Antimicrobial activity against Bacillus subtilis assessed as inhibition of visible growth after 24 hrs by disc-diffusion method; type: functional, organism-based
[48] = tested on: SF-295; assay: as §5; type: functional
[49] = tested on: MCF7; assay: Growth inhibition of human MCF7 cells at 10 uM after 48 hrs; type: functional
[50] = tested on: HOP-92; assay: as §6; type: functional
[51] = tested on: Escherichia coli; assay: Antimicrobial activity against Escherichia coli assessed as inhibition of visible growth after 24 hrs by disc-diffusion method; type: functional, organism-based
[52] = tested on: SR; assay: Growth inhibition of human SR cells at 10 uM after 48 hrs; type: functional
[53] = tested on: Hs-578T; assay: Growth inhibition of human Hs 578T cells at 10 uM after 48 hrs; type: functional
[54] = tested on: T47D; assay: Growth inhibition of human T47D cells at 10 uM after 48 hrs; type: functional
[55] = tested on: NCI-H522; assay: Growth inhibition of human NCI-H522 cells at 10 uM after 48 hrs; type: functional
[56] = tested on: OVCAR-4; assay: as §7; type: functional
[57] = tested on: RPMI-8226; assay: as §8; type: functional
[58] = tested on: MDA-MB-468; assay: Growth inhibition of human MDA-MB-468 cells at 10 uM after 48 hrs; type: functional
[59] = tested on: PC-3; assay: as §9; type: functional
[60] = tested on: NCI-H226; assay: Growth inhibition of human NCI-H226 cells at 10 uM after 48 hrs; type: functional
[61] = tested on: HCT-116; assay: as §10; type: functional
[62] = tested on: SF-539; assay: Growth inhibition of human SF539 cells at 10 uM after 48 hrs; type: functional
[63] = tested on: CCRF-CEM; assay: Growth inhibition of human CCRF-CEM cells at 10 uM after 48 hrs; type: functional

COc1ccc(-n2c(Sc3sc(N)nc3C)nc3ccc(C)cc3c2=O)cc1
inhibition of growth at 10 µM ([1]; SNB-19, 48 h, read-out: GI): 15.5%
inhibition of growth at 10 µM ([2]; MDA-MB-231, 48 h, read-out: GI): 25%
inhibition of growth at 10 µM [3]: 15.4%
inhibition of growth at 10 µM [4]: 26.2%
inhibition of growth at 10 µM [5]: 13.4%
inhibition of growth at 10 µM ([6]; 786-0, 48 h, read-out: GI): 12%
zone of inhibition at 200 µg/disc [7]: 8 mm
inhibition of growth at 10 µM ([8]; K562, 48 h, read-out: GI): 13%
inhibition of growth at 10 µM ([9]; KM12, 48 h, read-out: GI): 19.4%
inhibition of growth at 10 µM [10]: 11.9%
inhibition of growth at 10 µM [11]: 10.6%
inhibition of growth at 10 µM [12]: 25.3%
inhibition of growth at 10 µM [13]: 28%
inhibition of growth at 10 µM [14]: 17.9%
inhibition of growth at 10 µM [15]: 11.3%
inhibition of growth at 10 µM ([16]; SK-MEL-5, 48 h, read-out: GI): 15.7%
inhibition of growth at 10 µM [17]: 10.6%
inhibition of growth at 10 µM [18]: 20.6%
zone of inhibition at 200 µg/disc [19]: 8 mm
inhibition of growth at 10 µM [20]: 42.3%
inhibition of growth at 10 µM [21]: 11%
inhibition of growth at 10 µM ([22]; A498, 48 h, read-out: GI): 24.6%
zone of inhibition at 200 µg/disc [23]: 8 mm
inhibition of growth at 10 µM [24]: 12.9%
inhibition of growth at 10 µM ([25]; A549, 48 h, read-out: GI): 15.6%
zone of inhibition at 200 µg/disc [26]: 8 mm
inhibition of growth at 10 µM ([27]; CAKI-1, 48 h, read-out: GI): 11.5%
zone of inhibition at 200 µg/disc [28]: 8 mm
inhibition of growth at 10 µM [29]: 16.2%
inhibition of growth at 10 µM ([30]; U-251, 48 h, read-out: GI): 15.7%
inhibition of growth at 10 µM [31]: 15.9%
inhibition of growth at 10 µM [32]: 19.1%
IC50 [33]: 7 µM

Cc1ccc(-n2c(Sc3nnc(N)s3)nc3ccc(Cl)cc3c2=O)cc1
growth inhibition (GI) [1]: inactive
growth inhibition (GI) [2]: inactive
growth inhibition (GI) [34]: inactive
growth inhibition (GI) [35]: inactive
growth inhibition (GI) [36]: inactive
growth inhibition (GI) [37]: inactive
growth inhibition (GI) [38]: inactive
growth inhibition (GI) [6]: inactive
zone of inhibition at 200 µg/disc [7]: 18 mm
growth inhibition (GI) [8]: inactive
growth inhibition (GI) [9]: inactive
Activity [39]: Active
growth inhibition (GI) [40]: inactive
growth inhibition (GI) [41]: inactive
growth inhibition (GI) [42]: inactive
growth inhibition (GI) [43]: inactive
growth inhibition (GI) [44]: inactive
growth inhibition (GI) [45]: inactive
growth inhibition (GI) [46]: inactive
growth inhibition (GI) [16]: inactive
Activity [47]: Active
growth inhibition (GI) [48]: inactive
growth inhibition (GI) [49]: inactive
zone of inhibition at 200 µg/disc [19]: 20 mm
growth inhibition (GI) [50]: inactive
Activity [51]: Active
growth inhibition (GI) [22]: inactive
growth inhibition (GI) [52]: inactive
zone of inhibition at 200 µg/disc [23]: 14 mm
growth inhibition (GI) [53]: inactive
growth inhibition (GI) [54]: inactive
growth inhibition (GI) [55]: inactive
growth inhibition (GI) [56]: inactive
growth inhibition (GI) [25]: inactive
zone of inhibition at 200 µg/disc [26]: 10 mm
growth inhibition (GI) [27]: inactive
zone of inhibition at 200 µg/disc [28]: 18 mm
growth inhibition (GI) [57]: inactive
growth inhibition (GI) [30]: inactive
growth inhibition (GI) [58]: inactive
growth inhibition (GI) [59]: inactive
growth inhibition (GI) [60]: inactive
growth inhibition (GI) [61]: inactive
IC50 [33]: 8 µM
growth inhibition (GI) [62]: inactive
growth inhibition (GI) [63]: inactive
